Entries after “also recorded” stand apart in the source; their conditions may differ. Where two headings read alike, the source gives them in different places.
Key:
[1] = test system: Tubulin α1 (Tα1) promoter; test: cells
Method in brief: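 Mouse CGR8 ESCs carrying Tα1-firefly and EF1α-Renilla luciferase reporters, treated either undifferentiated (48 h exposure after 24 h plating) or as MS5-induced neurons (exposure day 6 to day 8). Dual-luciferase luminescence expressed as % promoter activity versus DMSO control wells; 5 µM methylmercury as positive control.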

[2] = test system: ESCs and ESC-derived neurons; test: Dual luminescence reporter test system, all readouts in ESCs and ESC-derived neurons
Method in brief: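 CGR8-2Luc mouse ESCs (dual reporter: Tα1-FLuc neural, EF1α-RLuc general) exposed 48 h after 24 h plating; ESC-derived neurons re-plated day 5 in N2/bFGF medium. Luciferase normalized to DMSO controls; PI (50 µg/ml, 2 h) measured DNA content as cytotoxicity. Curves scored by ≥30% significant change (ANOVA/Dunnett).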

[3] = ESC-derived neurons, 48 h exposure
[4] = reporter activity changes in the non-cytotoxic concentration range, highest possible number 4
[5] = ESCs and neurons, FLuc, RLuc, PI

Row | Molecule | LOAEL Neurons Tα1 [1, 3] [µM] | Number of non-cytotoxic changes [2, 4] | Number of non-cytotoxic changes ([2]; mouse, 48 h) | also measured
1 | Erythropoietin: EpoR agonist controlling erythropoiesis and neurogenesis; Peptide/Protein | >0.238 | 0 | – | –
2 | C[C@]12CC[C@H](O)CC1=CC[C@@H]1[C@@H]2CC[C@]2(C)C(c3cccnc3)=CC[C@@H]12 [Abiraterone] | 1 | – | 1 | concentration up to which no cytotoxicity in the PI assay ([2]; mouse, 48 h): > 100 µM
3 | Nc1ccccc1NC(=O)c1ccc(CNC(=O)OCc2cccnc2)cc1 [Entinostat] | 0.5 | – | 1 | –
4 | CC(C)NCC(O)COc1cccc2ccccc12 (centres unmarked) [Propranolol] | 50 | – | 2 | –
5 | COc1ccc2[nH]c([S+]([O-])Cc3ncc(C)c(OC)c3C)nc2c1 (centres unmarked) [Omeprazole] | >50 | – | 0 | result in the dual luminescence reporter test system [2]: negative
6 | COC(=O)c1ccc2c(c1)NC(=O)/C2=C(\Nc1ccc(N(C)C(=O)CN2CCN(C)CC2)cc1)c1ccccc1 [Nintedanib] | 0.05 | – | 2 | –
7 | [Br][Hg][Br] [Mercury bromide] | 10 | – | – | Number of non-cytotoxic changes [2]: 1
8 | Brc1ccc(Oc2cc(Br)c(Br)cc2Br)c(Br)c1 [PBDE-99] | >50 | 1 | – | result in the dual luminescence reporter test system [2, 5]: potentially neurotoxic
9 | COC1=C2C[C@@H](C)C[C@H](OC)[C@H](O)[C@@H](C)/C=C(\C)[C@H](OC(N)=O)[C@@H](OC)/C=C\C=C(/C)C(=O)NC(=CC1=O)C2=O [Geldanamycin] | 0.05 | – | 1 | result in the dual luminescence reporter test system [2]: considerable cytotoxicity; EC20 ([2]; in vitro system (neurons and ESCs)): 1 to 10 nM
10 | Oxytocin | >0.1 | 0 | – | result in the dual luminescence reporter test system [2, 5]: did not have any effects
11 | O=c1[nH]c(=O)c2[nH]c(=O)[nH]c2[nH]1 [Uric acid] | >50 | 0 | – | result in the dual luminescence reporter test system [2, 5]: negative
12 | C[CH2][Hg][S]c1ccccc1C(=O)[O-].[Na+] [Thimerosal] | – | – | – | LOAEL Neurons Tα1 [1]: 0.5 µM; Number of non-cytotoxic changes [2]: 0
13 | COc1cc2ncnc(Nc3ccc(F)c(Cl)c3)c2cc1OCCCN1CCOCC1 [Gefitinib] | 50 | – | 0 | –
14 | COCC(=O)O [Methoxyacetic acid] | 50 | 1 | – | inhibition at 50 µM ([1]; Mus musculus, Neuron, read-out: inhibition of neuronal promoter activity): ~40%; result in the dual luminescence reporter test system [2, 5]: very weak signal; also recorded: relatively weak signal
15 | C/C(O)=C(\C#N)C(=O)Nc1ccc(C(F)(F)F)cc1 [Teriflunomide] | 50 | 1 | – | effect on neural promoter activity in neurons [1]: increase; concentration range of various effects [2]: 4 to 40 µM; result in the dual luminescence reporter test system [2, 5]: no effects on general promoter activity and/or on PI fluorescence
16 | [CH3][Hg][Cl] [Methylmercury] | 0.05 | 1 | – | –
17 | Cc1[nH]c2ccccc2c1CCNCc1ccc(/C=C/C(=O)NO)cc1 [Panobinostat] | 0.0005 | – | 1 | effect on neural promoter activity in neurons [1]: inhibited at subnanomolar concentrations; result in the dual luminescence reporter test system [2]: no enhancement of promoter activities under any condition
18 | O=C(NC[C@H]1CN(c2ccc(N3CCOCC3=O)cc2)C(=O)O1)c1ccc(Cl)s1 [Rivaroxaban] | >10 | – | 0 | –
19 | O=C(/C=C/c1cccc(S(=O)(=O)Nc2ccccc2)c1)NO [Belinostat] | 0.0005 | – | 1 | –
20 | CCCC(CCC)C(=O)O [Valproic acid] | 50 | – | 2 | –
21 | G-CSF: Hormone stimulating granulopoiesis; Peptide/Protein (protein, UniProt P09919 31-207, looked up) Granulocyte …: TPLGPASSLPQSFLLKCLEQVRKIQGDGAALQEKLVSECATYKLCHPEELVLLGHSLGIPWAPLSSCPSQALQLAGCLSQLHSGLFLYQGLLQALEGISPELGPTLDTLQLDVADFATTIWQQMEELGMAPALQPTQGAMPAFASAFQRRAGGVLVASHLQSFLEVSYRVLRHLAQP | >0.00266 | 0 | – | –
